Source: patent US20240408119A1, “DELIVERY OF THERAPEUTIC ALKALOID COMPOUNDS” (priority 2022, published 2024)
Where two headings read alike, the source gives them in different places.

Experiments:
[1] = Hydrolysis Assay - Condition 2 (DI Water); format: physicochemical; details: 25° C., 0.5 mM
Description: 50 μL of compound (10 mM) in DMSO was diluted into 950 μL of DI water to a final concentration of 0.5 mM. The hydrolysis kinetics were conducted at 25° C. and measured by LCMS at a certain time interval.
(§1) The corresponding LCMS chromatogram were recorded and the conversions were calculated by integration of each peak.
(§2) • 1) LCMS spectra were obtained using Agilent 1200G1956A or SHIMADZU LCMS-2020. Standard LCMS conditions were as follows (running time 1.55 minutes): • Acidic condition: Mobile Phase A: 0.0375% TFA in water (v/v). Mobile Phase B: 0.01875% TFA in acetonitrile (v/v); Column: Kinetex EVO C18 30*2.1 mm, 5 μm. • Basic condition: Mobile Phase A: 0.025% NH3·H2O in water (v/v). Mobile Phase B: Acetonitrile; Column: Kinetex EVO C18 2.1×30 mm, 5 μm. • 2) Conversion (%)=peak area 1/(peak area 1+peak area 2)*100%, peak area 1 is the integration of hydrolyzed product, peak area 2 is the integration of starting material.

[2] = format: in vitro ADME, mouse; details: 5 μM, 37° C.; for Mouse Plasma Prodrug (%): prodrug remaining; for Mouse Plasma Metabolite (%): metabolite (mesembrine) accumulated
Description: (§3) Each test was carried out in duplicate for each time point; 0 min, 15 min, 30 min, 60 min, 120, 240 min. […]

[3] = format: in vitro ADME, human; details: 5 μM, 37° C.; for Human Plasma Prodrug (%): prodrug remaining; for Human Plasma Metabolite (%): metabolite (mesembrine) accumulated
Description: as §3

[4] = Hydrolysis Assay - Condition 1 (SGF); format: physicochemical; details: SGF with pepsin pH 1.5, 37° C., 0.5 mM
Description: 50 μL of compound (10 mM) in DMSO was diluted into 950 μL of Simulated Gastric Fluid (SGF) with pepsin (pH 1.5) to a final concentration of 0.5 mM. The hydrolysis kinetics were conducted at 37° C. and measured by LCMS at a certain time interval.
as §1, §2

[5] = Plasma Stability Assay (Example A3), human plasma; format: in vitro ADME; details: prodrug remaining, 10 μM, 37° C.
Excerpt: (§4) The data is represented in the table below.

[6] = Plasma Stability Assay (Example A3), rat plasma; format: in vitro ADME; details: prodrug remaining, 10 μM, 37° C.
Excerpt: as §4

Structure (SMILES)	Condition 2 Conversion (%) ([1]; 1 min)	Condition 2 Conversion (%) ([1]; 5 min)	Condition 2 Conversion (%) ([1]; 30 min)	Condition 2 Conversion (%) ([1]; 1 h)	Condition 2 Conversion (%) ([1]; 4 h)	Condition 2 Conversion (%) ([1]; 24 h)	Mouse Plasma Prodrug (%) ([2]; 0 min)	Mouse Plasma Prodrug (%) ([2]; 15 min)	Mouse Plasma Prodrug (%) ([2]; 30 min)	Mouse Plasma Prodrug (%) ([2]; 60 min)	Mouse Plasma Prodrug (%) ([2]; 120 min)	Mouse Plasma Prodrug (%) ([2]; 240 min)	Human Plasma Prodrug (%) ([3]; 0 min)	Human Plasma Prodrug (%) ([3]; 15 min)	Human Plasma Prodrug (%) ([3]; 30 min)	Human Plasma Prodrug (%) ([3]; 60 min)	Human Plasma Prodrug (%) ([3]; 120 min)	Human Plasma Prodrug (%) ([3]; 240 min)	Condition 1 Conversion (%) ([4]; 1 min)	Condition 1 Conversion (%) ([4]; 5 min)	further results
COc1ccc([C@@]23CCC(OC(=O)N4CCN(C)CC4)=C[C@@H]2N(C)CC3)cc1OC [Compound 327, [(3aS,7aS)-3a-(3,4-dimethoxyphenyl)-1-methyl-3,4,5,7a-tetrahydro-2H-indol-6-yl]4-methylpiperazine-1-carboxylate]	0%	0%	0%	0%	0%	0%	100%	>99%	>99%	>99%	>99%	>99%	100%	>99%	98.9%	>99%	>99%	94.4%	0%	0%	Condition 1 Conversion (%) ([4]; 30 min): 0%; Condition 1 Conversion (%) ([4]; 1 h): 0%; Condition 1 Conversion (%) ([4]; 4 h): 0%; Condition 1 Conversion (%) ([4]; 24 h): 0%
COc1ccc([C@@]23CCC(OP(=O)(O)OCOC(=O)OC(C)C)=C[C@@H]2N(C)CC3)cc1OC [Compound 410, [[(3aS,7aS)-3a-(3,4-dimethoxyphenyl)-1-methyl-3,4,5,7a-tetrahydro-2H-indol-6-yl]oxy-hydroxy-phosphoryl]oxymethyl isopropyl carbonate]	–	–	–	–	–	–	–	–	–	–	–	–	–	–	–	–	–	–	–	–	Human Plasma Prodrug (%) ([5]; 0 min): 100.0%; Human Plasma Prodrug (%) ([5]; 10 min): 96.3%; Human Plasma Prodrug (%) ([5]; 30 min): 98.8%; Human Plasma Prodrug (%) ([5]; 60 min): 92.7%; Human Plasma Prodrug (%) ([5]; 120 min): 88.2%; Human Plasma Prodrug (%) ([5]; 240 min): 75.5%; Rat Plasma Prodrug (%) ([6]; 0 min): 100.0%; Rat Plasma Prodrug (%) ([6]; 10 min): 63.0%; Rat Plasma Prodrug (%) ([6]; 30 min): 25.4%; Rat Plasma Prodrug (%) ([6]; 60 min): 7.1%; Rat Plasma Prodrug (%) ([6]; 120 min): 0.52%; Rat Plasma Prodrug (%) ([6]; 240 min): 0.01%
COc1ccc([C@@]23CCC(OP(=O)(Oc4ccccc4)Oc4ccccc4)=C[C@@H]2N(C)CC3)cc1OC [Compound 320, [(3aS,7aS)-3a-(3,4-dimethoxyphenyl)-1-methyl-3,4,5,7a-tetrahydro-2H-indol-6-yl]diphenyl phosphate]	–	–	–	–	–	–	100%	58.5%	46.5%	30.7%	19.4%	11.7%	100%	95.7%	98.5%	95.7%	98.2%	95.3%	–	–	Mouse Plasma Metabolite (%) ([2]; 0 min): 11.8%; Mouse Plasma Metabolite (%) ([2]; 15 min): 15.9%; Mouse Plasma Metabolite (%) ([2]; 30 min): 16.9%; Mouse Plasma Metabolite (%) ([2]; 60 min): 18.6%; Mouse Plasma Metabolite (%) ([2]; 120 min): 19.1%; Mouse Plasma Metabolite (%) ([2]; 240 min): 18.9%; Human Plasma Metabolite (%) ([3]; 0 min): 7.6%; Human Plasma Metabolite (%) ([3]; 15 min): 8.0%; Human Plasma Metabolite (%) ([3]; 30 min): 8.5%; Human Plasma Metabolite (%) ([3]; 60 min): 8.6%; Human Plasma Metabolite (%) ([3]; 120 min): 9.4%; Human Plasma Metabolite (%) ([3]; 240 min): 10.4%
COc1ccc([C@@]23CCC(OP(=O)(O)O)=C[C@@H]2N(C)CC3)cc1OC [Compound 359, [(3aS,7aS)-3a-(3,4-dimethoxyphenyl)-1-methyl-3,4,5,7a-tetrahydro-2H-indol-6-yl] dihydrogen phosphate]	–	–	–	–	–	–	100%	>99%	82.7%	79.0%	50.7%	59.1%	100%	69.0%	65.1%	50.4%	32.8%	25.6%	–	–	Mouse Plasma Metabolite (%) ([2]; 0 min): 0.0%; Mouse Plasma Metabolite (%) ([2]; 15 min): 0.0%; Mouse Plasma Metabolite (%) ([2]; 30 min): 0.0%; Mouse Plasma Metabolite (%) ([2]; 60 min): 0.0%; Mouse Plasma Metabolite (%) ([2]; 120 min): 0.0%; Mouse Plasma Metabolite (%) ([2]; 240 min): 0.0%; Human Plasma Metabolite (%) ([3]; 0 min): 0.0%; Human Plasma Metabolite (%) ([3]; 15 min): 0.0%; Human Plasma Metabolite (%) ([3]; 30 min): 0.0%; Human Plasma Metabolite (%) ([3]; 60 min): 0.0%; Human Plasma Metabolite (%) ([3]; 120 min): 15.7%; Human Plasma Metabolite (%) ([3]; 240 min): 23.0%
COc1ccc([C@@]23CCC(OC(=O)N(C)C)=C[C@@H]2N(C)CC3)cc1OC [Compound 324, [(3aS,7aS)-3a-(3,4-dimethoxyphenyl)-1-methyl-3,4,5,7a-tetrahydro-2H-indol-6-yl] N,N-dimethylcarbamate]	0%	0%	0%	0%	0%	0%	100.0%	97.4%	94.4%	94.9%	92.6%	88.9%	100.0%	98.2%	98.7%	>99%	>99%	96.5%	0%	0%	Condition 1 Conversion (%) ([4]; 30 min): 0%; Condition 1 Conversion (%) ([4]; 1 h): 0%; Condition 1 Conversion (%) ([4]; 4 h): 0%; Condition 1 Conversion (%) ([4]; 24 h): 0%
